Measurements reported in ChEMBL document CHEMBL3046264, “Juvenile hormone activity of ethyl 4-(2-aryloxyhexyloxy)benzoates with precocious metamorphosis-inducing activity” (Biosci Biotechnol Biochem, 2007).
The source made the active and inactive calls. The rule behind the calls is not given here.

Key:
Bombyx mori [1] = assay: Induction of precocious metamorphosis in allatectomized fourth-instar larvae of Bombyx mori Shunei x Shougetsu assessed as juvenile hormone activity at 10 to 40 ug applied topically to dorsal abdomen of larvae; format: functional, organism-based
Bombyx mori [2] = assay: Induction of precocious metamorphosis in allatectomized fourth-instar larvae of Bombyx mori Shunei x Shougetsu assessed as juvenile hormone activity at 1 ug applied topically to dorsal abdomen of larvae; format: functional, organism-based

SMILES	Activity (Bombyx mori [1])	Activity (Bombyx mori [2])
CCCCC(COc1ccc(C(=O)OCC)cc1)Oc1ccc(C)nc1 (stereo unspecified)	Active	inactive
CCCCC(COc1ccc(C(=O)OCC)cc1)Oc1ccccc1 (stereo unspecified)	Active	inactive
CCOC(=O)c1ccc(OCC(CC)OC(=O)C(C)(C)C)cc1 (stereo unspecified)		Active
COC(C)(C)CCC[C@H](C)C/C=C/C(C)=C/C(=O)OC(C)C		Active
